Assay results published in patent US10988523B2, “Modified lipidated Relaxin B chain peptides and their therapeutic use” (Sanofi, priority 2018, dated 2021).
*1 amine or outer side, *2 acyl side, *3 side chain or, on linkers, in order; H or OH if unused. Where a SMILES comes first, the peptide text is derived from it. Side-chain parts run from the residue outwards. [ ]: non-standard residue; d: D form. The star is where a group is joined. X18 = CCCCCCCCCCCCCCCC(=O)N[C@@H](CCC(=O)N[C@@H](CCC(=O)N[C@@H](CCC(=O)NCCCC[C@H](NC(=O)CCC(=O)NCCCOCCOCCOCCCNC(=O)CCC(=O)NCCCOCCOCCOCCCNC(=O)CCC(=O)NCCCOCCOCCOCCCN*)C(N)=O)C(=O)O)C(=O)O)C(=O)O; X16 = CCCCCCCCCCCCCCCCCC(=O)N[C@@H](CCC(=O)N[C@@H](CCC(=O)N[C@@H](CCC(=O)NCCCOCCOCCOCCCNC(=O)COCC(=O)*)C(=O)O)C(=O)O)C(=O)O; γGlu = O=C(O)[C@H](CCC(=O)[*:2])N[*:1]; Pentadecanoyl = CCCCCCCCCCCCCCC(=O)*; αMeK = C[C@](N)(CCCCN)C(=O)O; Nle = CCCC[C@H](N)C(=O)O; AEEA = NCCOCCOCC(=O)O; Aib = CC(C)(N)C(=O)O

Target: T1, RXFP1 (Homo sapiens, UniProt Q9HBX9)
T1 construct: OVCAR5 cells expressing endogenous RXFP1; endogenous in cells; host or cells: OVCAR5 cells
T1 sequence (Q9HBX9 1-757): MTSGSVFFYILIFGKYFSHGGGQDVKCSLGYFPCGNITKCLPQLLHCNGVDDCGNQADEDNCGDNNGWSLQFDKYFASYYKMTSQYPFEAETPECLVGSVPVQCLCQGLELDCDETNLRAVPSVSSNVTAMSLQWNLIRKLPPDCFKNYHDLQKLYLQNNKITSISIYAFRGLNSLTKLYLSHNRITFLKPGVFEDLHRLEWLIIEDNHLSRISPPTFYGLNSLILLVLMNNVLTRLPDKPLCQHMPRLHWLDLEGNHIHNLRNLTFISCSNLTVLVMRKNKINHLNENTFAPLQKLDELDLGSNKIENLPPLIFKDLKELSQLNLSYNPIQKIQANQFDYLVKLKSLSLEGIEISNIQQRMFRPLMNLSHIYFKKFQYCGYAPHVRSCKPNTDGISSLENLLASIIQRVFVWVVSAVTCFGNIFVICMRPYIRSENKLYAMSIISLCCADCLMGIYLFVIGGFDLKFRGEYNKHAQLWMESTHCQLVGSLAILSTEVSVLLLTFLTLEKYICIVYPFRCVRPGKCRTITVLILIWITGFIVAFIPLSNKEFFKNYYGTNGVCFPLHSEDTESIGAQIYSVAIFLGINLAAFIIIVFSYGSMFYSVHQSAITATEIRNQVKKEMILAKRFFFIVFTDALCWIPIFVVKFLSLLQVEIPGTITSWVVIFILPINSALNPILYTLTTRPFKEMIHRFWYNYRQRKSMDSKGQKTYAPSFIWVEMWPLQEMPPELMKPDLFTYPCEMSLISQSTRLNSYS
Assay: OVCAR5 cAMP assay (HTRF), RXFP1 agonist activity
Type: cell-based
Conditions: for Emax: OVCAR-5, maximal cAMP relative to H2-relaxin maximum (100%), read-out: EMax, OVCAR 5 cells (cAMP)
Text: OVCAR5 cells expressing endogenous RXFP1 were used to test RXP1 agonist properties of peptides of the invention, and in particular of the peptides of sequence SEQ ID NO: 1-193.
Since RXFP1 is a Gs coupled GPCR, cAMP was used as readout of RXFP1 activation.
Isobutyl Methyl Xanthine (IBMX) was used to inhibit phosphodiesterase activity facilitating cAMP measurements. HTRF (Homogenous Time Resolved Fluorescence) technology was used to detect cAMP due to its great sensitivity.
In summary, OVCAR5 were grown in regular medium (RPMI) containing 10% fetal calf serum (FCS) and 1% antibiotics (penicillin/streptomycin).
Before the experiments, cells were detached with accutase and incubated for 40 minutes at 37° C. with 1 mM (3-isobutyl-1-methylxanthine) IBMX.
Cells were then distributed in 384 black well plates containing increasing concentrations of the different peptides in a fix volume of medium (without FCS).
After an incubation of 30 min at 37° C. in an humid incubator in 5% CO2, the reaction was stopped by adding a fixed volume of a solution containing a lysis buffer and cAMP-D2 (cAMP labeled with the dye d2) and the anti cAMP antibody linked to Europium and used for cAMP detection.
Readout of the experiment were performed on a fluorimeter allowing HTRF measurement. Activation curves were generated by plotting the intracellular value of cAMP versus log 10 of the compound concentration.
The 50% activation concentration (EC50) was calculated by nonlinear regression using the sigmoidal dose-response (variable slope) equation with Prism 5 software.
Emax % is determined as the maximal intracellular value of cAMP for test compound (upper limit of cAMP vs concentration curve) divided by the maximal intracellular value of cAMP for H2-relaxin determined in the same test occasion multiplied by 100. Emax %=100×[cAMPtest cpd]/[cAMPH2-RlX]

Row | Emax [%] | EC50 (OVCAR5 cells, cAMP HTRF, read-out: EC50 (nM), OVCAR 5 cells (cAMP)) [nM] | Compound
1 | 90 | – | CCCCCCCCCCCCCCCCCC(=O)N[C@@H](CCC(=O)N[C@@H](CCC(=O)N[C@@H](CCC(=O)NCCCOCCOCCOCCCNC(=O)COCC(=O)NCCCC[C@H](NC(=O)[C@H](CCCCNC(C)=O)NC(=O)[C@H](CCCCN)NC(=O)[C@H](CCCNC(=N)N)NC(=O)C(C)(C)NC(=O)[C@H](CO)NC(=O)[C@H](Cc1c[nH]c2ccccc12)NC(=O)[C@@H](NC(=O)[C@H](CO)NC(=O)[C@H](CCCC)NC(=O)CNC(=O)[C@H](CCC(=O)O)NC(=O)C(C)(C)NC(=O)C(C)(C)NC(=O)[C@@H](NC(=O)[C@H](CCCCNC(C)=O)NC(=O)[C@H](C)NC(=O)[C@H](CCCNC(=N)N)NC(=O)[C@@H](NC(=O)[C@H](CCCCN)NC(=O)[C@H](CCC(=O)O)NC(=O)[C@H](CCCNC(=N)N)NC(=O)CNC(=O)[C@H](CCC(=O)O)NC(=O)[C@H](CC(C)C)NC(C)=O)C(C)C)[C@@H](C)CC)[C@@H](C)O)C(N)=O)C(=O)O)C(=O)O)C(=O)O [compound 94] (Ac-LEGREKVRAK(Ac)I[Aib][Aib]EG[Nle]STWS[Aib]RKK(Ac)K(X16)-NH2)
2 | 100 | – | CCCCCCCCCCCCCCCC(=O)N[C@@H](CCC(=O)N[C@@H](CCC(=O)N[C@@H](CCC(=O)NCCCC[C@H](NC(=O)CCC(=O)NCCCOCCOCCOCCCNC(=O)CCC(=O)NCCCOCCOCCOCCCNC(=O)CCC(=O)NCCCOCCOCCOCCCNC(=O)[C@H](CCCCNC(C)=O)NC(=O)[C@H](C)NC(=O)[C@H](CCCNC(=N)N)NC(=O)[C@](C)(CCCCN)NC(=O)[C@H](CO)NC(=O)[C@H](Cc1ccccc1)NC(=O)[C@@H](NC(=O)[C@H](CO)NC(=O)[C@H](CCCC)NC(=O)CNC(=O)[C@H](CCC(=O)O)NC(=O)C(C)(C)NC(=O)C(C)(C)NC(=O)[C@@H](NC(=O)[C@H](CCCCNC(C)=O)NC(=O)[C@H](C)NC(=O)[C@H](CCCNC(=N)N)NC(=O)[C@@H](NC(=O)[C@H](CCCCN)NC(=O)[C@H](CCC(=O)O)NC(=O)[C@H](CCCNC(=N)N)NC(=O)CNC(=O)[C@H](CCC(=O)O)NC(=O)[C@H](CC(C)C)NC(C)=O)C(C)C)[C@@H](C)CC)[C@@H](C)O)C(N)=O)C(=O)O)C(=O)O)C(=O)O [compound 187] (Ac-LEGREKVRAK(Ac)I[Aib][Aib]EG[Nle]STFS[αMeK]RAK(Ac)-X18)
3 | 91 | 0.06 | CCCCCCCCCCCCCCC(=O)N[C@@H](CCC(=O)N[C@@H](CCC(=O)NCCCC[C@H](NC(=O)CC[C@H](NC(=O)CC[C@H](NC(=O)COCCOCCNC(=O)COCCOCCNC(=O)COCCOCCNC(=O)COCCOCCNC(=O)[C@H](CCCCNC(C)=O)NC(=O)[C@H](C)NC(=O)[C@H](CCCNC(=N)N)NC(=O)[C@](C)(CCCCN)NC(=O)[C@H](CO)NC(=O)[C@H](Cc1ccccc1)NC(=O)[C@@H](NC(=O)[C@H](CO)NC(=O)[C@H](CCCC)NC(=O)CNC(=O)[C@H](CCC(=O)O)NC(=O)C(C)(C)NC(=O)C(C)(C)NC(=O)[C@@H](NC(=O)[C@H](CCCCNC(C)=O)NC(=O)[C@H](C)NC(=O)[C@H](CCCNC(=N)N)NC(=O)[C@@H](NC(=O)[C@H](CCCCN)NC(=O)[C@H](CCC(=O)O)NC(=O)[C@H](CCCNC(=N)N)NC(=O)CNC(=O)[C@H](CCC(=O)O)NC(=O)[C@H](CC(C)C)NC(C)=O)C(C)C)[C@@H](C)CC)[C@@H](C)O)C(=O)O)C(=O)O)C(N)=O)C(=O)O)C(=O)O [compound 168] (Ac-LEGREKVRAK(Ac)I[Aib][Aib]EG[Nle]STFS[αMeK]RAK(Ac)[AEEA][AEEA][AEEA][AEEA][γGlu][γGlu]K([γGlu-γGlu-Pentadecanoyl])-NH2)
